These are literature values, as cited in patent US9974722B2, “Reduced-ethanol mouth rinse formulations” (Johnson & Johnson Consumer Inc., priority 2016, dated 2018).

`CC1CCC(C(C)C)C(O)C1` (stereo not shown) [Menthol]: the solubility in alcohol entry is given as “only slightly soluble”.
